# How the values were obtained:
# HT-29 [1] = experiment: Induction of apoptosis in human HT-29 cells assessed as early apoptotic cells at 2 uM incubated for 48 hrs by Annexin V-FITC/PI staining based flow cytometry analysis (Rvb= 2.41%); assay type: functional
# HT-29 [2] = experiment: Induction of mitochondrial membrane potential loss in human HT-29 cells assessed as JC-1 monomer formation by measuring increase in green intensity at 2 uM incubated for 48 hrs by JC-1 staining based flow cytometry analysis (reference value: 6.54 %); assay type: functional
# HT-29 [3] = experiment: Induction of apoptosis in human HT-29 cells assessed as upregulation of Bax protein expression incubated for 48 hrs by Western blot analysis; assay type: functional, cell-based; settings: dose 1-4 µM, DDE = dose-dependent effect
# HT-29 [4] = experiment: Induction of apoptosis in human HT-29 cells assessed as early apoptotic cells at 4 uM incubated for 48 hrs by Annexin V-FITC/PI staining based flow cytometry analysis (Rvb= 2.41%); assay type: functional
# [5] = Selectivity index, ratio of IC50 for cytotoxicity against human HFL1 cells to IC50 for antiproliferative activity against human HT-29 cells overexpressing NQO1; assay type: toxicity, cell-based; settings: HFL1 cells versus HT-29 cells overexpressing NQO1, read-out: Ratio IC50
# HT-29 [6] = experiment: Induction of cell cycle arrest in human HT-29 cells assessed as accumulation of cells at G2 phase at 2 uM incubated for 48 hrs by RNaeA/propidium iodide based flow cytometry analysis (reference value: 13.96 %); assay type: functional
# HT-29 [7] = experiment: Induction of apoptosis in human HT-29 cells assessed as viable cells at 2 uM incubated for 48 hrs by Annexin V-FITC/PI staining based flow cytometry analysis (Rvb= 96.54%); assay type: functional; settings: read-out: Activity
# HT-29 [8] = experiment: Induction of cell cycle arrest in human HT-29 cells assessed as accumulation of cells at G1 phase at 2 uM incubated for 48 hrs by RNaeA/propidium iodide based flow cytometry analysis (reference value: 62.98 %); assay type: functional
# HT-29 [9] = experiment: Induction of mitochondrial membrane potential loss in human HT-29 cells assessed as JC-1 monomer formation by measuring increase in green intensity at 4 uM incubated for 48 hrs by JC-1 staining based flow cytometry analysis (reference value: 6.54 %); assay type: functional
# HT-29 [10] = experiment: Induction of mitochondrial membrane potential loss in human HT-29 cells assessed as JC-1 monomer formation by measuring increase in green intensity at 1 uM incubated for 48 hrs by JC-1 staining based flow cytometry analysis (reference value: 6.54 %); assay type: functional
# HT-29 [11] = experiment: Induction of apoptosis in human HT-29 cells assessed as downregulation of Bcl-xl protein expression incubated for 48 hrs by Western blot analysis; assay type: functional, cell-based; settings: dose 1-4 µM, DDE = dose-dependent effect
# HT-29 [12] = experiment: Induction of mitochondrial membrane potential loss in human HT-29 cells assessed as healthy cells at 2 uM incubated for 48 hrs by JC-1 staining based flow cytometry analysis (reference value: 93.4 %); assay type: functional
smiles,measurement,setting,value
C=C(C)[C@@H]1CC[C@]2(C(=O)OCCOC(=O)CCC(=O)OCc3cn(C)c4c3C(=O)C(OC)=CC4=O)CC[C@]3(C)[C@H](CC[C@@H]4[C@@]5(C)CC[C@H](O)[C@@](C)(CO)[C@@H]5CC[C@]43C)[C@@H]12,Activity,HT-29 [1],22.49%
same,Activity,HT-29 [2],33.41%
same,Activity,HT-29 [3],Dde
same,Activity,HT-29 [4],32.28%
same,selectivity ratio,[5],4.16
same,Activity,HT-29 [6],25.17%
same,viability at 2 µM,HT-29 [7],55.7%
same,Activity,HT-29 [8],52.73%
same,Activity,HT-29 [9],44.48%
same,Activity,HT-29 [10],20.83%
same,Activity,HT-29 [11],Dde
same,Activity,HT-29 [12],66.47%
